Where a name gives a salt, the structure may show the parent alone.
Test system: Phosphorylated eIF4E
Assay: peIF4E Signaling Cellular Assay (CisBio peIF4E HTRF)
Type: cell-based
Details: cells incubated with compound for 2 hrs at 37° C., 12-point curve
Experimental: Phosphorylated eIF4E is assayed using the CisBio peIF4E HTRF® assay kit (CisBio, catalogue No. 64EF4PEG). Cells are plated in 96-well tissue-culture treated plate in appropriate growth medium (90 μL). Compounds (10×) are diluted using 3-fold serial dilutions in cell culture medium and added to cells. Plates are incubated for 2 hrs at 37° C. The cell supernatant is carefully removed either by aspirating supernatant or by flicking the plate. Immediately 50 μL of supplemented lysis buffer (1×) is added and incubated for at least 30 minutes at room temperature under shaking. After homogenization by pipeting up and down, 16 μL of cell lysate is transferred from the 96-well cell-culture plate to a 384-well small volume white plate. 4 μL of premixed antibody solutions (vol/vol) is prepared in the detection buffer and added. The plate is covered with a plate sealer and incubated overnight at room temperature. The fluorescence emissions at two different wavelengths are read (665 nm and 620 nm) on a Wallac Victor2. Emission ratios are converted into percent inhibitions and imported into GraphPad Prism software. […] IC50 values are determined using a nonlinear regression model available in GraphPad Prism 5.

| Compound | IC50 |
| --- | --- |
| Cc1cc(Nc2ncncc2C#N)cc2c1C(=O)NC21CCN(C)CC1 [Cpd. No. 61, 4-((1′,4-dimethyl-3-oxospiro[isoindoline-1,4′-piperidin]-6-yl)amino)pyrimidine-5-carbonitrile trifluoroacetic acid salt] | 1 to 100 µM |
| Cc1cc(Nc2ncnc(N)c2C)cc2c1C(=O)NC21CCN(C)CC1 [Cpd. No. 62, 6-((6-amino-5-methylpyrimidin-4-yl)amino)-1′,4-dimethylspiro[isoindoline-1,4′-piperidin]-3-one] | 1 to 100 µM |
| Cc1cc(Nc2ncncc2C#N)cc2c1C(=O)NC21CCN(CC(F)F)CC1 [Cpd. No. 67, 4-((1′-(2,2-difluoroethyl)-4-methyl-3-oxospiro[isoindoline-1,4′-piperidin]-6-yl)amino)pyrimidine-5-carbonitrile] | 1 to 100 µM |
| COc1cc(Nc2ncnc(N)c2C)cc2c1C(=O)NC21CCCCC1 [Cpd. No. 78, 6′-((6-amino-5-methylpyrimidin-4-yl)amino)-4′-methoxyspiro[cyclohexane-1,1′-isoindolin]-3′-one] | 1 to 100 µM |
| Cc1cc(Nc2ncnc(N)c2OCCN)cc2c1C(=O)NC21CCCCC1 [Cpd. No. 81, 6′-((6-amino-5-(2-aminoethoxy)pyrimidin-4-yl)amino)-4′-methylspiro[cyclohexane-1,1′-isoindolin]-3′-one hydrochloride] | 0.05 to 1 µM |
| CSc1c(N)ncnc1Nc1cc(C)c2c(c1)C1(CCCCC1)NC2=O [Cpd. No. 85, 6′-((6-amino-5-(methylthio)pyrimidin-4-yl)amino)-4′-methylspiro[cyclohexane-1,1′-isoindolin]-3′-one trifluoroacetic acid salt] | 0.05 to 1 µM |
| Cc1cc(Nc2ncnc(N)c2S(C)(=O)=O)cc2c1C(=O)NC21CCCCC1 [Cpd. No. 86, 6′-((6-amino-5-(methylsulfonyl)pyrimidin-4-yl)amino)-4′-methylspiro[cyclohexane-1,1′-isoindolin]-3′-one] | 0.05 to 1 µM |
| Cc1cc(Nc2ncnc(N)c2OCCCN)cc2c1C(=O)NC21CCCCC1 [Cpd. No. 87, 6′-((6-amino-5-(3-aminopropoxy)pyrimidin-4-yl)amino)-4′-methylspiro[cyclohexane-1,1′-isoindolin]-3′-one hydrochloride salt] | 0.05 to 1 µM |
| Cc1c(N)ncnc1Nc1cc(C(F)F)c2c(c1)C1(CCCCC1)NC2=O [Cpd. No. 88, 6′-((6-amino-5-methylpyrimidin-4-yl)amino)-4′-(difluoromethyl)spiro[cyclohexane-1,1′-isoindolin]-3′-one] | 0.05 to 1 µM |
| Cc1c(N)ncnc1Nc1cc(F)c2c(c1)C1(CCCCC1)NC2=O [Cpd. No. 89, 6′-((6-amino-5-methylpyrimidin-4-yl)amino)-4′-fluorospiro[cyclohexane-1,1′-isoindolin]-3′-one] | 0.05 to 1 µM |
| CCc1cc(Nc2ncnc(N)c2C)cc2c1C(=O)NC21CCCCC1 [Cpd. No. 90, 6′-((6-amino-5-methylpyrimidin-4-yl)amino)-4′-ethylspiro [cyclohexane-1,1′-isoindolin]-3′-one] | 0.05 to 1 µM |
| Cc1c(N)ncnc1Nc1cc(C#N)c2c(c1)C1(CCCCC1)NC2=O [Cpd. No. 91, 6′-((6-amino-5-methylpyrimidin-4-yl)amino)-3′-oxospiro[cyclohexane-1,1′-isoindoline]-4′-carbonitrile] | 1 to 100 µM |
| Cc1c(N)ncnc1Nc1cc(O)c2c(c1)C1(CCCCC1)NC2=O [Cpd. No. 92, 6′-((6-amino-5-methylpyrimidin-4-yl)amino)-4′-hydroxyspiro[cyclohexane-1,1′-isoindolin]-3′-one] | 1 to 100 µM |
| Cc1cc(Nc2ncnc(N)c2C)c(O)c2c1C(=O)NC21CCCCC1 [Cpd. No. 93, 6′-((6-amino-5-methylpyrimidin-4-yl)amino)-7′-hydroxy-4′-methylspiro[cyclohexane-1,1′-isoindolin]-3′-one] | 0.05 to 1 µM |
| COc1c(Nc2ncnc(N)c2C)cc(C)c2c1C1(CCCCC1)NC2=O [Cpd. No. 94, 6′-((6-amino-5-methylpyrimidin-4-yl)amino)-7′-methoxy-4′-methylspiro[cyclohexane-1,1′-isoindolin]-3′-one] | 0.05 to 1 µM |
| Cc1cc(Nc2ncnc(N)c2C)c(Cl)c2c1C(=O)NC21CCCCC1 [Cpd. No. 96, 6′-((6-amino-5-methylpyrimidin-4-yl)amino)-7′-chloro-4′-methylspiro[cyclohexane-1,1′-isoindolin]-3′-one] | 1 to 100 µM |
| Cc1cc(Nc2ncnc(N)c2C)cc2c1C(=O)NC2 [Cpd. No. 106, 5-((6-amino-5-methylpyrimidin-4-yl)amino)-7-methylisoindolin-1-one] | 1 to 100 µM |
| Cc1cc(Nc2ncnc(N)c2C)cc2c1C(=O)CC21CCCCC1 [Cpd. No. 110, 6′-((6-amino-5-methylpyrimidin-4-yl)amino)-4′-methylspiro[cyclohexane-1,1′-inden]-3′(2′H)-one] | 0.05 to 1 µM |

Next, values leading:

| IC50 | Compound |
| --- | --- |
| 0.05 to 1 µM | COc1cncnc1Nc1cc(C)c2c(c1)C1(CCN(C)CC1)NC2=O [Cpd. No. 60, 6-((5-methoxypyrimidin-4-yl)amino)-1′,4-dimethylspiro [isoindoline-1,4′-piperidin]-3-one] |
| 0.05 to 1 µM | Cc1cc(Nc2ncncc2C#N)cc2c1C(=O)NC21CCCCC1 [Cpd. No. 63, 4-((4′-methyl-3′-oxospiro[cyclohexane-1,1′-isoindolin]-6′-yl)amino)pyrimidine-5-carbonitrile] |
| 0.05 to 1 µM | Cc1cc(Nc2ncncc2C(N)=O)cc2c1C(=O)NC21CCCCC1 [Cpd. No. 64, 4-((4′-methyl-3′-oxospiro[cyclohexane-1,1′-isoindolin]-6′-yl)amino)pyrimidine-5-carboxamide] |
| 0.05 to 1 µM | COc1cncnc1Nc1cc(C)c2c(c1)C1(CCN(CC(F)F)CC1)NC2=O [Cpd. No. 65, 1′-(2,2-difluoroethyl)-6-((5-methoxypyrimidin-4-yl)amino)-4-methylspiro[isoindoline-1,4′-piperidin]-3-one] |
| 0.05 to 1 µM | Cc1cc(Nc2ncnc(N)c2C)cc2c1C(=O)NC21CCN(CC(F)F)CC1 [Cpd. No. 66, 6-((6-amino-5-methylpyrimidin-4-yl)amino)-1′-(2,2-difluoroethyl)-4-methylspiro[isoindoline-1,4′-piperidin]-3-one] |
| 0.05 to 1 µM | COc1c(N)ncnc1Nc1cc(C)c2c(c1)C1(CCN(C)CC1)NC2=O [Cpd. No. 68, 6-((6-amino-5-methoxypyrimidin-4-yl)amino)-1′,4-dimethylspiro[isoindoline-1,4′-piperidin]-3-one] |
| 0.05 to 1 µM | COc1c(N)ncnc1Nc1cc(C)c2c(c1)C1(CCN(CC(F)F)CC1)NC2=O [Cpd. No. 69, 6-((6-amino-5-methoxypyrimidin-4-yl)amino)-1′-(2,2-difluoroethyl)-4-methylspiro[isoindoline-1,4′-piperidin]-3-one] |
| < 0.05 µM | Cc1cc(Nc2cc(N)ncn2)nc2c1C(=O)NC21CCCCC1 [Cpd. No. 70, 2′-((6-aminopyrimidin-4-yl)amino)-4′-methylspiro[cyclohexane-1,7′-pyrrolo[3,4-b]pyridin]-5′(6′H)-one] |
| < 0.05 µM | Cc1cc(Nc2ncnc(N)c2Cl)nc2c1C(=O)NC21CCCCC1 [Cpd. No. 73, 2′-((6-amino-5-chloropyrimidin-4-yl)amino)-4′-methylspiro[cyclohexane-1,7′-pyrrolo[3,4-b]pyridin]-5′(6′H)-one] |
| 0.05 to 1 µM | Cc1cc(Nc2ncnc(N)c2C)cc2c1C(=O)NC21CCOCC1 [Cpd. No. 74, 6-((6-amino-5-methylpyrimidin-4-yl)amino)-4-methyl-2′,3′,5′,6′-tetrahydrospiro[isoindoline-1,4′-pyran]-3-one] |
| < 0.05 µM | Cc1cc(Nc2ncnc3[nH]ccc23)cc2c1C(=O)NC21CCCCC1 [Cpd. No. 75, 6′-((7H-pyrrolo[2,3-d]pyrimidin-4-yl)amino)-4′-methylspiro[cyclohexane-1,1′-isoindolin]-3′-one] |
| 0.05 to 1 µM | CCOc1c(N)ncnc1Nc1cc(C)c2c(c1)C1(CCCCC1)NC2=O [Cpd. No. 76, 6′-((6-amino-5-ethoxypyrimidin-4-yl)amino)-4′-methylspiro[cyclohexane-1,1′-isoindolin]-3′-one] |
| < 0.05 µM | Cc1cc(Nc2ncnc(N)c2C#N)cc2c1C(=O)NC21CCCCC1 [Cpd. No. 77, 4-amino-6-((4′-methyl-3′-oxospiro[cyclohexane-1,1′-isoindolin]-6′-yl)amino)pyrimidine-5-carbonitrile] |
| 0.05 to 1 µM | Cc1c(N)ncnc1Nc1cc(C(F)(F)F)c2c(c1)C1(CCCCC1)NC2=O [Cpd. No. 79, 6′-((6-amino-5-methylpyrimidin-4-yl)amino)-4′-(trifluoromethyl)spiro[cyclohexane-1,1′-isoindolin]-3′-one] |
| 0.05 to 1 µM | Cc1cc(Nc2ncnc(N)c2C(F)(F)F)cc2c1C(=O)NC21CCCCC1 [Cpd. No. 80, 6′-((6-amino-5-(trifluoromethyl)pyrimidin-4-yl)amino)-4′-methylspiro[cyclohexane-1,1′-isoindolin]-3′-one] |
| < 0.05 µM | Cc1cc(Nc2ncnc(N)c2OC(F)(F)F)cc2c1C(=O)NC21CCCCC1 [Cpd. No. 83, 6′-((6-amino-5-(trifluoromethoxy)pyrimidin-4-yl)amino)-4′-methylspiro[cyclohexane-1,1′-isoindolin]-3′-one] |
| 0.05 to 1 µM | Cc1cc(Nc2ncnc(N)c2OC(F)F)cc2c1C(=O)NC21CCCCC1 [Cpd. No. 84, 6′-((6-amino-5-(difluoromethoxy)pyrimidin-4-yl)amino)-4′-methylspiro[cyclohexane-1,1′-isoindolin]-3′-one] |

Source: patent US10112955B2, “Isoindoline, azaisoindoline, dihydroindenone and dihydroazaindenone inhibitors of Mnk1 and Mnk2” (eFFECTOR THERAPEUTICS, INC., priority 2015, dated 2018)
